Results reported in ChEMBL document CHEMBL5550172 (Eur J Med Chem, 2024).

Columns and labels:
Histone deacetylase 1 = Histone deacetylase 1 (Homo sapiens, UniProt Q13547); experiment: Inhibition of recombinant human HDAC1 using Ac-Val-Gly-(NAc)Lys-AMC as substrate incubated for 30 mins by fluorescence based assay
[1] = molecular target: T1, Protein deacetylase HDAC6 (Homo sapiens, UniProt Q9UBN7); experiment: Inhibition of recombinant human HDAC6 using Ac-Val-Gly-(NAc)Lys-AMC as substrate incubated for 30 mins by fluorescence based assay
T1 sequence (Q9UBN7 whole entry): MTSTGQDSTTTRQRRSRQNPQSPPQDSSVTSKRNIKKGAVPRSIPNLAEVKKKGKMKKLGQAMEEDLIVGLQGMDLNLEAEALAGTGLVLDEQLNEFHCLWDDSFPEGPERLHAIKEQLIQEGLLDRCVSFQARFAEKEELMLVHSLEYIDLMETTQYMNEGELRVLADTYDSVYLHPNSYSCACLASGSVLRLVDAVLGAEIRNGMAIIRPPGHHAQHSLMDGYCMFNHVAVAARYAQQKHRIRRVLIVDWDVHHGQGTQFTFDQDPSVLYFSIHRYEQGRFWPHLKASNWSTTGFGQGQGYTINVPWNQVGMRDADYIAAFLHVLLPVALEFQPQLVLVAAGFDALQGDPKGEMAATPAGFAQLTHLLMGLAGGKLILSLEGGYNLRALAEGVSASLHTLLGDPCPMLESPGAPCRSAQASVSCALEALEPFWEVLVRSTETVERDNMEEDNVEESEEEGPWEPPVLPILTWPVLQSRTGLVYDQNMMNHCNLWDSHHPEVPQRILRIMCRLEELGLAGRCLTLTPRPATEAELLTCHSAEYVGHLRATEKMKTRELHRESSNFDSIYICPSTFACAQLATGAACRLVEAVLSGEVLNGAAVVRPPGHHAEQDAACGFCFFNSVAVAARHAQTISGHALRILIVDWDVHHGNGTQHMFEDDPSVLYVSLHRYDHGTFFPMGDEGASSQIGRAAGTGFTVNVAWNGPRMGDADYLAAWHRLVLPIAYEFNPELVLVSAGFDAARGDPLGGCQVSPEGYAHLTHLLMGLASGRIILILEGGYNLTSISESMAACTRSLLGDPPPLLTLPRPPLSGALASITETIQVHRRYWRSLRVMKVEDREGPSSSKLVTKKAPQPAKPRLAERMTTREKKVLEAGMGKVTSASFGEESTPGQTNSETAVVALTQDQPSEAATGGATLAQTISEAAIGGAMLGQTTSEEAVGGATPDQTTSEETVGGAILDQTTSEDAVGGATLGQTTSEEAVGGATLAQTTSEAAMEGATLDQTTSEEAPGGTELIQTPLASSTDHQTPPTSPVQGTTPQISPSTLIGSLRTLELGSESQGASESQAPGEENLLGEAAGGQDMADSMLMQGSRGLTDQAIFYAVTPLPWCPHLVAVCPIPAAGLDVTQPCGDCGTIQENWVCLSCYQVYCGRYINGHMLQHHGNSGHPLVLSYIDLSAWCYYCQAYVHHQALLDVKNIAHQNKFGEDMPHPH

MCF7 = experiment: Antiproliferative activity against human MCF7 cells expressing ER assessed as inhibition of cell viability at high concentration incubated for 12 days with every 3 day treatment by Alamar blue staining based assay relative to control; assay type: functional; conditions: time 12 day

Histone deacetylase 1, sequence (Q13547 whole entry): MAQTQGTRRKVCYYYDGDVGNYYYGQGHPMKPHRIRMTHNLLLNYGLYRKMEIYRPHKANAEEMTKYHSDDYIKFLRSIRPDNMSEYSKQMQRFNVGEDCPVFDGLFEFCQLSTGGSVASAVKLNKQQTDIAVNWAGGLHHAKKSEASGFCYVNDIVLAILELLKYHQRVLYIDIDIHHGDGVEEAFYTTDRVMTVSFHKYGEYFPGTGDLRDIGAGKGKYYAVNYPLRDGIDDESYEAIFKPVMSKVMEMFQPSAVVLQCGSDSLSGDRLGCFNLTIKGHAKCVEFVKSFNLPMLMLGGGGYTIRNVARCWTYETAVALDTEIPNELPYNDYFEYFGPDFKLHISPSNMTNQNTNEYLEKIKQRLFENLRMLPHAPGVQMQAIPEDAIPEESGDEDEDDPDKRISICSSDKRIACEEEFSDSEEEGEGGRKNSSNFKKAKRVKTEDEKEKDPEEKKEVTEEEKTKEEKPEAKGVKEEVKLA

Structure (SMILES) | IC50 (Histone deacetylase 1) | IC50 [1] | inhibition (INH) (MCF7)
O=C(CCCOc1ccc(-c2sc3cc(O)ccc3c2C(=O)c2ccc(OCCN3CCCCC3)cc2)cc1)NO | 5990 nM | 91 nM | 100%
O=C(CCCCCOc1ccc(-c2sc3cc(O)ccc3c2C(=O)c2ccc(OCCN3CCCCC3)cc2)cc1)NO | 132 nM | 21 nM | 
O=C(CCCCc1ccc(-c2sc3cc(O)ccc3c2C(=O)c2ccc(OCCN3CCCCC3)cc2)cc1)NO | 257 nM | 221 nM | 
O=C(CCCCCc1ccc(-c2sc3cc(O)ccc3c2C(=O)c2ccc(OCCN3CCCCC3)cc2)cc1)NO | 12 nM | 297 nM | 
O=C(CCCCCCc1ccc(-c2sc3cc(O)ccc3c2C(=O)c2ccc(OCCN3CCCCC3)cc2)cc1)NO | 344 nM | 333 nM | 
O=C(CCCCOc1ccc(-c2sc3cc(O)ccc3c2C(=O)c2ccc(OCCN3CCCCC3)cc2)cc1)NO | 389 nM | 123 nM | 
O=C(CCc1ccc(-c2sc3cc(O)ccc3c2C(=O)c2ccc(OCCN3CCCCC3)cc2)cc1)NO | 464 nM | 202 nM | 100%
